How the values were obtained:
[1] = system: HepG2 cells; test: MTT cytotoxicity assay against HepG2 cell line; type: cell-based; details: Homo sapiens, mean of three independent replicates ± SE
Procedure: Cytotoxic activity was carried out using MTT colorimetric antiproliferative assay to investigate the effect of the prepared molecules on HepG2 as well as HL-7702 cell lines. See Section 4.3.1 in Supplementary Data.
4.3.1. Cytotoxic activity evaluation
To measure the cytotoxic actvity of the amide derivatives 2-6e in hepatocellular carcinoma (HepG2) cell line (ATCC Cat No. HB-8065) as well as normal human liver cell line HL-7702 (ATCC Cat. No. 77402), cell viability assay was assessed using MTT assay method. Cells at density of 1 x 104 were seeded in a 96-well plate at 37 °C for 24 h under 5% CO2. After incubation, the cells were treated with different concentrations of the test schiff bases 2-6e and incubated for 24 h, then 20 µl of MTT solution at 5 mg/mL was applied and incubated for 4 h at 37 °C . Dimethyl sulphoxide (DMSO) in volume of 100 µl was added to each well to dissolve the purple formazan that had formed. The color intensity of the formazan product, which represents the growth condition of the cells, is quantified by using an ELISA plate reader (EXL 800, USA) at 450 nm absorbance. The experimental conditions were carried out with at least three replicates, and the experiments were repeated at least three times. […]

SMILES | melting point [°C] | IC50 [1] [µM]
COc1cc(C=C(NC(=O)c2cc(OC)c(OC)c(OC)c2)C(=O)NNC(=O)/C(=C/c2ccco2)NC(=O)c2cc(OC)c(OC)c(OC)c2)cc(OC)c1OC [Compound 6e, N-(3-(2-((Z)-3-(furan-2-yl)-2-(3,4,5-trimethoxybenzamido)acryloyl)hydrazinyl)-3-oxo-1-(3,4,5-trimethoxyphenyl)prop-1-en-2-yl)-3,4,5-trimethoxybenzamide] | 212 to 214 | 3.98 ± 0.09
COc1ccc(C=C(NC(=O)c2cc(OC)c(OC)c(OC)c2)C(=O)NNC(=O)/C(=C/c2ccco2)NC(=O)c2cc(OC)c(OC)c(OC)c2)cc1 [Compound 6d, N-(3-(2-((Z)-3-(furan-2-yl)-2-(3,4,5-trimethoxybenzamido)acryloyl)hydrazinyl)-1-(4-methoxyphenyl)-3-oxoprop-1-en-2-yl)-3,4,5-trimethoxybenzamide] | 206 to 208 | 3.81 ± 0.18
O=C(CCCCCCC(=O)Nc1ccccc1)NO [SAHA, suberoylanilide hydroxamic acid, reference compound] |  | 2.91 ± 0.15
COc1cc(C(=O)NC(=Cc2ccco2)C(=O)NNC(=O)c2ccncc2)cc(OC)c1OC [Compound 4b, N-(1-(furan-2-yl)-3-(2-isonicotinoylhydrazinyl)-3-oxoprop-1-en-2-yl)-3,4,5-trimethoxybenzamide] | 228 to 230 | 8.36 ± 0.51
COc1cc(C(=O)NC(=Cc2ccco2)C(=O)Nc2ccc3ccccc3c2)cc(OC)c1OC [Compound 3, N-(1-(furan-2-yl)-3-(naphthalen-2-ylamino)-3-oxoprop-1-en-2-yl)-3,4,5-trimethoxybenzamide] |  | 16.2 ± 0.79
COc1cc(C(=O)NC(=Cc2ccco2)C(=O)NNC(=O)c2ccc(NC(=O)c3cccnc3)cc2)cc(OC)c1OC [Compound 5, N-(4-(2-(3-(furan-2-yl)-2-(3,4,5 trimethoxybenzamido)acryloyl)hydrazinecarbonyl)phenyl)nicotinamide] | 217 to 219 | 3.25 ± 0.25

Second part, led by results:

melting point [°C] | SMILES | IC50 [1] [µM]
235 to 237 | COc1cc(C(=O)NC(=Cc2ccco2)C(=O)NNC(=O)c2cccc(O)c2)cc(OC)c1OC [Compound 4a, N-(1-(furan-2-yl)-3-(2-(3-hydroxybenzoyl)hydrazinyl)-3-oxoprop-1-en-2-yl)-3,4,5-trimethoxybenzamide] | 13.4 ± 0.56
270 to 272 | COc1cc(C(=O)NC(=Cc2ccco2)C(=O)Nc2ccc3ccccc3c2)cc(OC)c1OC (hydrate or solvate) [Compound 3, N-(1-(furan-2-yl)-3-(naphthalen-2-ylamino)-3-oxoprop-1-en-2-yl)-3,4,5-trimethoxybenzamide] | 
248 to 250 | COc1cc(C(=O)NC(=Cc2ccco2)C(=O)Nc2cccc(Cl)c2)cc(OC)c1OC [Compound 2a, N-(3-(3-chlorophenylamino)-1-(furan-2-yl)-3-oxoprop-1-en-2-yl)-3,4,5-trimethoxybenzamide] | 68.9 ± 3.32
241 to 243 | COc1cc(C(=O)NC(=Cc2ccco2)C(=O)Nc2ccc(Cl)cc2)cc(OC)c1OC [Compound 2b, N-(3-(4-chlorophenylamino)-1-(furan-2-yl)-3-oxoprop-1-en-2-yl)-3,4,5-trimethoxybenzamide] | 23.3 ± 1.03
261 to 263 | COc1cc(C(=O)NC(=Cc2ccco2)C(=O)Nc2ccc(C)cc2)cc(OC)c1OC [Compound 2c, N-(1-(furan-2-yl)-3-oxo-3-(p-tolylamino)prop-1-en-2-yl)-3,4,5-trimethoxybenzamide] | 22 ± 0.96
